# Measurements taken from patent publication US7855076B2, “Use of discoidin domain receptor 1 (DDR1) and agents that affect the DDR1/collagen pathway” (The United States of America as represented by the …, priority 2002, dated 2010).
# Tests used:
# DDR1 protein = DDR1 protein expression in leukocytes by immunoprecipitation and Western blotting; format: cell-based, human; conditions: PBMC; TNF-α 5 ng/ml or GM-CSF 10 ng/ml, 36 hours
# Description: For Western blot analysis, cell lysates were prepared from freshly isolated PBMC, PBMC incubated overnight in RPMI 1640 containing 10% FCS, and MCF-7 cells. Cells were lysed on ice for 20 minutes in a buffer containing 50 mM Hepes, 150 mM NaCl, 1% Triton X-100, 10% glycerol, 10 mM NaF, 1 mM ethylenediamine tetraacetic acid, […], 1 mg/ml leupeptin, 1 mM phenylmethylsulfonyl fluoride, 1 mg/ml aprotinin, and 1 mg/ml pepstatin A. The lysates were spun, and the supernatants were collected. The samples were incubated with approximately 20 μl packed volume of PGS for 1 hour at 4° C. After centrifugation, supernatants were collected, mixed with 1 μg/ml normal rabbit IgG or polyclonal anti-human DDR1 IgG, and incubated for 1 hour at 4° C. PGS (20 μl) was then added and incubated for another 1 hour. IgG-coupled PGS was washed with the buffer containing 50 mM Hepes, 150 mM NaCl, 0.1% Triton X-100, 10% glycerol buffer three times, and 20 μl double-strength sample buffer (20% glycerol, 6% sodium dodecylsulfate (SDS), 10% 2-mercaptoethanol) was added. The samples were boiled for 10, minutes. Eluted proteins were analyzed on 7.5% polyacrylamide gels by SDS polyacrylamide gel electrophoresis (SDS-PAGE) and transferred electrophoretically to nitrocellulose membranes (Amersham, Arlington Heights, Ill.) at 200 mA for 2 hours by a semi-dry system. The membranes were incubated with polyclonal anti-human DDR1 or anti-phosphotyrosine IgG, followed by sheep anti-mouse IgG coupled with horseradish peroxidase (Amersham). Peroxidase activity was visualized by the Enhanced Chemiluminescence Detection System (Amersham).
# There was no detectable DDR1 protein in freshly isolated PBMC. DDR1 protein was detected clearly after overnight incubation in RPMI 1640 containing 10% FCS. In order to study the kinetics of DDR1 protein expression, PBMC were incubated with or withour addition of TNF-α (5 ng/ml), or GM-CSF (10 ng/ml) for 36 hours and cell lysates were prepared. Cell lysates were subjected to immunoprecipitation with anti-DDR1 IgG or control IgG. […]
# p38 MAP kinase = experiment: Phosphorylation of p38 MAP kinase in PMA-treated THP-1 cells, Western blotting; format: cell-based, human
# Description: Parental, mock, DDR1a- or DDR1b-overexpressing THP-1 cells were plated at 5×10^6/ml on uncoated tissue culture plates and stimulated with PMA (10 nM) for 24 hours, and then starved in RMPI 1640 without FCS for 10 hours. Subsequently cells were washed three times with PBS, and then incubated in the presence of 50 μg/ml collagen type I for various times.
# Ten million cells were lysed on ice for 20 minutes in a buffer containing 50 mM NaCl, 20 mM Tris-HCl, 50 mM sodium fluoride, 30 mM Na4P2O7, 5 mM EGTA, 3 mM sodium orthovanadate, 1% Triton X-100, 1 mg/ml leupeptin, 1 mM PMSF, 1 mg/ml aprotinin, 1 mg/ml pepstatinA and 100 μM sodium orthovanadate treated with H2O2. A lysis buffer containing 150 mM NaCl, 50 mM HEPES, 1% Triton-X 10% glycerol, 1 mM sodium fluoride, 1 mM EDTA, 2 mM sodium orthovanadate, 1 mg/ml leupeptin, 1 mM PMSF, 1 mg/ml aprotinin, 1 mg/ml pepstatinA and 100 μM sodium orthovanadate treated with H2O2, was also used for immunoprecipitation with anti-Shc Ab. The lysates were spun in a microcentrifuge for 20 minutes and the supernatants were collected. […]
# Eluted proteins were analyzed on 8% polyacrylamide gels by SDS-PAGE and transferred electrophoretically to nitrocellulose membranes at 150 mA for 1 hour by a semi-dry system. […] To detect phosphorylated or nonphosphorylated p38 MAP kinase or ATF-2, 20 μl of cell lysates were directly mixed with 20 μl of sample buffer and then analyzed.
# Downstream signaling molecules that may play a role in the up-regulation of HLA-DR in collagen-activated PMA-treated DDR1b-overexpressing cells were identified in the following manner. […] Phosphorylation of p38 MAP kinase was first detected 30 minutes after collagen activation of DDR1b-overexpressing cells and the level of phosphorylation increased thereafter. […] Phosphorylation of p38 MAP kinase was not detected in DDR1a-overexpressing cells up to 120 minutes. […] Phosphorylation of other members of the MAP kinase family, ERK1, ERK2, and JNK could not be detected in collagen-activated PMA-treated DDR1b-overexpressing cells. […]
Substance,level of DDR1 protein expression (DDR1 protein),"phosphorylation of p38 MAP kinase (p38 MAP kinase; DDR1a-overexpressing cells, up to 120 minutes)",time phosphorylation of p38 MAP kinase first detected (p38 MAP kinase; DDR1b-overexpressing cells) [min]
TNF-α,increased,,
collagen,,not detected,30
